For series [1], the system named is BV-2 microglia cells. Description: IL-6 and TNFα determination (ELISA). In kind it is cell-based, murine. The conditions noted are these: BV-2 cells, 10 µM; for microglial activating properties of metabolites (IL-6 production): n = 12. How it is done: BV-2 cells were a kind gift from Prof. Alba Minelli and were grown in RPMI medium supplemented with 10% fetal bovine serum (FBS) and 1% penicillin-streptromycin solution (Life Technologies, Belgium). The cells were cultured in culture flasks (Greiner, Belgium) in an incubator set at 37 °C and 5% CO2. When confluent, cells were detached using a cell scraper and diluted 1:20 approximately every 4 days. Experiments were performed in serum-free DMEM without phenol red.
To investigate the microglia activating properties of the peptide, IL-6 and TNFα levels were determined in cell-free supernatants of BV-2 microglia cells after treatment. BV-2 cells (2 × 10^5 cells/well) were seeded in 24-well plates and treated with peptide for 20 h. ELISA was performed according to the supplier’s protocol (eBioscience, Vienna, Austria). Briefly, after incubation with biotinylated detection antibody, avidin-HRP conjugate and subsequently chromogenic tetramethylbenzidine (TMB) substrate were added. Absorbance was measured at 450 nm and 570 nm using the Multiskan Ascent 354 microplate reader (Thermofisher, Waltham, USA). Concentrations were determined using the standard curve generated using known concentrations of TNFα and IL-6.
(In an ELISA, binding on a coated surface is turned into a signal by an enzyme label.)

Series [2] is described as follows: Multiple time regression (MTR) analysis, blood-to-brain influx. In kind it is in vivo, ICR-CD-1 mice. The conditions noted are these: 125I-labelled, mice, linear model, mean ± standard error. How it is done: Briefly, 0.1 µmol of the lyophilized peptide was dissolved in 100 µL of phosphate buffer (pH 7.4, 25 mM). A Iodo-Gen coated tube (Thermo Scientific, Merelbeke, Belgium) was first of all rinsed with 1 mL of phosphate buffer. Subsequently, 50 µL of sodium iodide solution (1.1 µmol/mL) and 1 mCi of Na^125I solution (Perking Elmer, Zaventem, Belgium) were transferred into this Iodo-Gen coated tube. The oxidation reaction was allowed to proceed for six minutes at room temperature, after which the iodonium solution was transferred to 50 µL of peptide solution (1 mM). The iodination reaction of the peptide was allowed to proceed for another six minutes at room temperature. Finally, the iodinated peptide was purified using a silver filter (Thermo Scientific, Merelbeke, Belgium).
In order to determine whether the peptide could enter the brain, in vivo multiple time regression (MTR) analysis was performed. ICR-CD-1 mice were anesthetized intraperitoneally using a 40% urethane solution (3 g/kg). […] At specified time points after injection (i.e. 1, 3, 5, 10, 12.5 and 15 min, with start and end in duplicate), blood was obtained from the carotid artery followed by decapitation of the mouse. The isolated brain was weighed and radioactivity measured in a gamma counter for 5 min (Wallac Wizard automatic gamma counter, Perkin Elmer, Shelton, CT, USA), as well as from 50 µL serum, which was obtained by centrifuging the collected blood at 10,000g for 15 min at 21 °C. The linear and biphasic modeling of the multiple time regression analysis was performed as previously described.

Series [3] is described as follows: serum. The conditions noted are these: 37 °C, up to 60 min.
The nature of series [4]: brain homogenate. The conditions noted are these: ICR-CD-1 mice, 37 °C, up to 60 min.
Series [5] is described as follows: liver homogenate. The conditions noted are these: ICR-CD-1 mice, 37 °C, up to 60 min.
The nature of series [6]: faeces homogenate. To be noted: ICR-CD-1 mice, 37 °C, up to 60 min.
A short description of series [7]: kidney homogenate. To be noted: ICR-CD-1 mice, 37 °C, up to 60 min.

Entries after “also recorded” stand apart in the source; their conditions may differ. No end group written: not given here.

For “DLPFEH [main metabolite of PapRIV formed in all matrices]”, the “microglial activating properties of metabolites (IL-6 production)” value (from here on “microglial activating properties”) in series [1] is “to the same extent as the native sequence”. On to “DLPF [metabolite of PapRIV formed in serum]”, for which the “microglial activating properties” value in series [1] is “no activating properties”. In series [2] (i.v. (jugular vein), 1–15 min), Dermorphin [reference compound] showed a Kin of 0.35 ± 0.05 µL/g/min. In series [2] (i.v.), the “Vascular brain distribution volume, V0” value came to 15.93 ± 0.64 µL/g. In the case of SDLPFEH, the cleaved bond result in series [3] is “S1-D2, major; also recorded: D2-L3; also recorded: F5-E6; also recorded: E6-H7”; in series [4], “S1-D2, major and D2-L”; in series [5], “S1-D2, major; also recorded: D2-L3”; in series [6] it was “S1-D2, major”; in series [7], “D2-L3; also recorded: S1-D2, major”. As for DEHSFLP [DEHSFLP], the “activating properties (IL-6 and TNFα production)” value in series [1] (scrambled control) is “no activating properties”. Turning to “SDLPF [metabolite of PapRIV formed in serum]”, the “microglial activating properties” value in series [1] is recorded as “no activating properties”.

The values are drawn from PMC8140105 (Scientific Reports, 2021).
